We go through one substance from patent US20070141086A1 (priority 2003, published 2007).

The assay deals with virulent culture of M. haemolytica (Oklahoma State strain). It is filed as in vivo, beef calves. The conditions noted are these: conclusion over vaccination and challenge study in calves. Here is the method: For the vaccination challenge, 5 ml of a virulent culture of M. haemolytica (Oklahoma State strain) was administered by transthoracic injection into the right and left caudal lung lobes of each calf (10 ml of culture per calf) on Day 34 of the study. The inoculum contained approximately 5.6×10^8 CFU/ml.
One animal in T01 died immediately following challenge due to pulmonary hemorrhage as a result of challenge administration; thus its lung lesion data was excluded from the analysis. One animal in T03 was found dead on Day 37 as a result of severe pneumonia but was necropsied and its lung data was analyzed along with the data from the other animals. There were no significant differences between the treatment groups (P>0.05).

With Tulathromycin, the “Overall adjuvant function / immune response indicators (antibody production, attitude, respiratory effort, lung lesions)” value was “appeared to effectively replace the adjuvant”.
